ChEMBL document CHEMBL5344473, “Inhibition of N-type calcium channels by phenoxyaniline and sulfonamide analogues” (RSC Med Chem, 2024)

Assays:
[1] = target: Voltage-dependent N-type calcium channel subunit alpha-1B (Homo sapiens, UniProt Q00975); assay: Inhibition of Cav2.2 in human SH-SY5Y cells assessed as inhibition of calcium influx measured for 300 secs in presence of Cav1 blocker, nifedipine by FLIPR assay; assay type: cell-based
in vitro = details: Sprague-Dawley, rat, plasma
[2] = Cytotoxicity against African green monkey COS7 cells assessed as reduction in cell viability measured after 20 hrs by CellTiter-Blue reagent based fluorescence analysis; details: chlorocebus aethiops
[3] = target: Voltage-dependent T-type calcium channel subunit alpha-1H (Homo sapiens, UniProt O95180); assay: Inhibition of human recombinant Cav3.2 alpha1 subunit expressed in HEK293T cells assessed as inhibition of calcium influx measured for 300 secs by FLIPR assay; assay type: cell-based
Sequence of Voltage-dependent T-type calcium channel subunit alpha-1H (O95180 whole entry): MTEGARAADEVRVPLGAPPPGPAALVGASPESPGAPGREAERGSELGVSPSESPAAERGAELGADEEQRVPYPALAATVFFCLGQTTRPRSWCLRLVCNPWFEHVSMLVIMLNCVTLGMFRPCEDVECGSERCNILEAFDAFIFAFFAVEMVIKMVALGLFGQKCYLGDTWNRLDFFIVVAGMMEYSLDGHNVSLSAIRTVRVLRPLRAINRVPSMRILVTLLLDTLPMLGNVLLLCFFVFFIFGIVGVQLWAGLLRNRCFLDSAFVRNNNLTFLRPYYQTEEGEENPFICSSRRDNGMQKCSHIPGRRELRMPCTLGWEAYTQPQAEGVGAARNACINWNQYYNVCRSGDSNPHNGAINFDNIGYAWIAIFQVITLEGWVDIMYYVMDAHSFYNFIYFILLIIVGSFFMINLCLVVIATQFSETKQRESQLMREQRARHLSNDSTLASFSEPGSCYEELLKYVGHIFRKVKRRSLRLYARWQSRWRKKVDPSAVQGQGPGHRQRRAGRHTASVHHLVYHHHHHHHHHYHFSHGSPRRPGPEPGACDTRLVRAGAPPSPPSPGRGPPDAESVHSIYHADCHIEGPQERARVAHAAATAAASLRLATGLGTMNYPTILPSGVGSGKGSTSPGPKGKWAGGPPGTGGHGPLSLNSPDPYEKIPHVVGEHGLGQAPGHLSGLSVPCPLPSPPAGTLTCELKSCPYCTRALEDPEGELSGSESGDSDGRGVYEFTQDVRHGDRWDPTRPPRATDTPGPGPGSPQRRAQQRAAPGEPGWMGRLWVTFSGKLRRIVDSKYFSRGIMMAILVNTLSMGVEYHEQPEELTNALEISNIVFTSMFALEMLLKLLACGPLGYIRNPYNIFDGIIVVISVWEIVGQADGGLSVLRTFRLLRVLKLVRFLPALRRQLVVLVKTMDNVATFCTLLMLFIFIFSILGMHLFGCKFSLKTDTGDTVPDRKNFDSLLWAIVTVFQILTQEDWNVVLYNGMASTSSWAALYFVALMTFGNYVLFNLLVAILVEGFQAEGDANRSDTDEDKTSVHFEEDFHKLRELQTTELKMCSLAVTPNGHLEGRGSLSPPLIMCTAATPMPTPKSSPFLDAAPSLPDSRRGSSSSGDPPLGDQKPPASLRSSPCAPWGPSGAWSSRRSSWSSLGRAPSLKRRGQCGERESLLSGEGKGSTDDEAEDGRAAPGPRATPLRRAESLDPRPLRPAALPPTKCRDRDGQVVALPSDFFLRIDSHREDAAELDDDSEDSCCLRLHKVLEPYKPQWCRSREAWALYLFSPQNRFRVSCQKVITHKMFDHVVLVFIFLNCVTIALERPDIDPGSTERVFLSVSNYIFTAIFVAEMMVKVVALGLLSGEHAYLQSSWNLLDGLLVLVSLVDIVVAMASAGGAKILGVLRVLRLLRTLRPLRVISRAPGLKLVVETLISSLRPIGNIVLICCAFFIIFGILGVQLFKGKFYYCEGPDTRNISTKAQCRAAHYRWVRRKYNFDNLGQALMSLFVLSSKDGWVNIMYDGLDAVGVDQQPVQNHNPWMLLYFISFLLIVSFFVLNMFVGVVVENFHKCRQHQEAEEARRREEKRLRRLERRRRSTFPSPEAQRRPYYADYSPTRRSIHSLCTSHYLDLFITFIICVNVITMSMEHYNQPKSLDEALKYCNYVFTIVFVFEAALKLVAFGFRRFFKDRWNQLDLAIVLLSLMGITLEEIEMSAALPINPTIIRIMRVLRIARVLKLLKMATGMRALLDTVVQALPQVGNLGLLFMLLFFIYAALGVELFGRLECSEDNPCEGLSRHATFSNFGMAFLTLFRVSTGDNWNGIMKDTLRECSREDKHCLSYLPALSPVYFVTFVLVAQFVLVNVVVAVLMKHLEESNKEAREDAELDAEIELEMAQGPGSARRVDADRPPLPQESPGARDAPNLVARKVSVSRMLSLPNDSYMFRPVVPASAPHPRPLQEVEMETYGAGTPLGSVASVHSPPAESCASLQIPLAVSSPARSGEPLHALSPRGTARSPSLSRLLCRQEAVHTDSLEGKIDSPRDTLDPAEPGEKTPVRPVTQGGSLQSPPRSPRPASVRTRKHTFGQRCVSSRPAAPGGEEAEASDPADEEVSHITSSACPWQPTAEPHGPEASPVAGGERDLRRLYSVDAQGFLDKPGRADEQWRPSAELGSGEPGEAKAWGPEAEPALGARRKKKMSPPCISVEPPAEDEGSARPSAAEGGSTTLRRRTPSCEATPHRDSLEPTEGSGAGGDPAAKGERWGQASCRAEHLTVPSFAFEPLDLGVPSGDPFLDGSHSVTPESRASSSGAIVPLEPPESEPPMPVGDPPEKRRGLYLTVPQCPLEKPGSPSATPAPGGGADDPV

Sequence of Voltage-dependent N-type calcium channel subunit alpha-1B (Q00975 whole entry): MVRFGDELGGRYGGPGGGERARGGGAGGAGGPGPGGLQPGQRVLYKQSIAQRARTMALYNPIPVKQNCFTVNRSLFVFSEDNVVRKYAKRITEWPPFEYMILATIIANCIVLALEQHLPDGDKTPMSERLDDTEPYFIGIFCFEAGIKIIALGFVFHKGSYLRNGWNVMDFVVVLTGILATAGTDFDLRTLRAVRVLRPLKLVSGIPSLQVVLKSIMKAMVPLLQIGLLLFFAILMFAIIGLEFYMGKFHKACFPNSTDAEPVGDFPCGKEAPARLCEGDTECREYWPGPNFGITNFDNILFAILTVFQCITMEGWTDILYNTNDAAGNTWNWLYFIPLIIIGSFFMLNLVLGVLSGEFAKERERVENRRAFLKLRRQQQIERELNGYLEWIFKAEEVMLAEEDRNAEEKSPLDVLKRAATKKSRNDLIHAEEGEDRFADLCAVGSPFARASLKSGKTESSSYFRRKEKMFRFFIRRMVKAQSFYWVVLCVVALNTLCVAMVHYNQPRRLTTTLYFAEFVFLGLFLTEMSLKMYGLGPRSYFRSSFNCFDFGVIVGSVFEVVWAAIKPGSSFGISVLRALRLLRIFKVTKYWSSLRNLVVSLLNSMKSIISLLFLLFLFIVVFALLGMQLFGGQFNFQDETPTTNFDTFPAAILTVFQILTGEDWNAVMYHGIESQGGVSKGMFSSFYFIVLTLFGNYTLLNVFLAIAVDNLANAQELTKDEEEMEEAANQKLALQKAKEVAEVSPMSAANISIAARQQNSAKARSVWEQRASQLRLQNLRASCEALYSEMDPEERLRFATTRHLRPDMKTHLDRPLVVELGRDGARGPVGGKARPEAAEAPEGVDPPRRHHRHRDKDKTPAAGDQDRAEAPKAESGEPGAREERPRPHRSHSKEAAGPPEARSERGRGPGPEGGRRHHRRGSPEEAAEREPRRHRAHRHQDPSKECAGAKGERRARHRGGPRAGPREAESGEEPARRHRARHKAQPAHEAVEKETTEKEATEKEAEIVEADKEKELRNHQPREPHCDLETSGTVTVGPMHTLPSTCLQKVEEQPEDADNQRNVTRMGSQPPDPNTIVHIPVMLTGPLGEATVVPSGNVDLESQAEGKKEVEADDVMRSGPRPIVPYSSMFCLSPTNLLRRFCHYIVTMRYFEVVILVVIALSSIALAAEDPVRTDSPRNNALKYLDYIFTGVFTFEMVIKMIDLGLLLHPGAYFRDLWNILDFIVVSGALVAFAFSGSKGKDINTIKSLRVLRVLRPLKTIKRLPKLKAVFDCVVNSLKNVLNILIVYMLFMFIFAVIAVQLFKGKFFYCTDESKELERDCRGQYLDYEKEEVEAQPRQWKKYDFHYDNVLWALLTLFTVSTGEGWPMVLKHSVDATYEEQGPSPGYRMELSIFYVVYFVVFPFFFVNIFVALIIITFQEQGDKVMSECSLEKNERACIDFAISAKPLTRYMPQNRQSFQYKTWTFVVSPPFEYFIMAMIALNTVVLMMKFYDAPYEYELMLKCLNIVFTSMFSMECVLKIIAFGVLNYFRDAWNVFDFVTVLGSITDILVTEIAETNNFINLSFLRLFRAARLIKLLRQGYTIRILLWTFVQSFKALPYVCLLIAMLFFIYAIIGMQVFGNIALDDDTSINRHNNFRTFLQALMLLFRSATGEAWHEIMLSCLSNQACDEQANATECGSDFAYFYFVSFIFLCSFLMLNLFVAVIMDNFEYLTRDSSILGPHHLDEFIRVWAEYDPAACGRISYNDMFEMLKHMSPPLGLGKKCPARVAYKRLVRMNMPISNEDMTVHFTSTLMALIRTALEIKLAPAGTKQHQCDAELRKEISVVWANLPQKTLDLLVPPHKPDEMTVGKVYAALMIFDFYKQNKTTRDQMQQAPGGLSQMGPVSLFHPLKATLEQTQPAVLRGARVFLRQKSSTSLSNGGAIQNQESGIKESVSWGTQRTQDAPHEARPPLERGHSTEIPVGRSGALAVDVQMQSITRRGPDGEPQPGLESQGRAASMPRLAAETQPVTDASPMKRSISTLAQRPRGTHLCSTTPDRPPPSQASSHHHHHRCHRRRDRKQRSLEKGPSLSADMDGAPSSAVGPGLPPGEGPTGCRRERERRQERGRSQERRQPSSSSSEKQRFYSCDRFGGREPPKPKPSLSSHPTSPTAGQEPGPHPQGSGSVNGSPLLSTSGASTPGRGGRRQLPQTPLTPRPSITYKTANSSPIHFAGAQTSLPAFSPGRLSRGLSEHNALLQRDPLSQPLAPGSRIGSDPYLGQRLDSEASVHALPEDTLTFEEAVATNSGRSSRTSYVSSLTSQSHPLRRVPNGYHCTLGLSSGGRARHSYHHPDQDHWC

Row | Compound | IC50 [1] | half-life at 150 µM (in vitro) | CC50 at 20 h [2] | IC50 [3]
1 | CC(C)[C@H]1c2ccc(F)cc2CC[C@@]1(CCN(C)CCCc1nc2ccccc2[nH]1)OC(=O)C1CC1 | 24.3 µM | – | – | –
2 | CN(C)CCCOc1ccc(C(=O)Nc2ccccc2Oc2ccc(F)cc2)cc1 | – | ~1.5 h | – | –
3 | CN(C)CCCOc1ccc(C(=O)Nc2ccccc2Oc2ccccc2)cc1 | – | – | > 100 µM | –
4 | FC(F)(F)c1ccc(Oc2ccccc2NCc2ccc(OCCCN3CCCC3)cc2)cc1 | 51 µM | – | – | 110 µM
5 | FC(F)(F)c1ccc(Oc2ccc(NCc3ccc(OCCCN4CCCC4)cc3)cc2)cc1 | 50 µM | > 60 h | – | 182 µM
6 | Fc1ccc(Oc2ccc(NCc3ccc(OCCCN4CCCC4)cc3)cc2)cc1 | 48 µM | > 60 h | – | 208 µM
7 | c1ccc(Oc2cccc(NCc3ccc(OCCCN4CCCCC4)cc3)c2)cc1 | 63 µM | > 60 h | – | 200 µM
8 | N#Cc1ccc(Oc2ccc(NCc3ccc(OCCCN4CCCC4)cc3)cc2)cc1 | 28 µM | > 60 h | – | 146 µM
9 | c1ccc(Oc2cccc(NCc3ccc(OCCCn4ccnc4)cc3)c2)cc1 | 68 µM | > 60 h | – | 258 µM
10 | Fc1ccc(Oc2ccccc2NCc2ccc(OCCCn3ccnc3)cc2)cc1 | 33 µM | > 60 h | – | 196 µM
11 | CN(C)CCCOc1ccc(S(=O)(=O)Nc2cccc(Oc3ccccc3)c2)cc1 | 10 µM | > 60 h | – | 142 µM
12 | CNCCCOc1ccc(CNc2ccccc2Oc2ccc(C(F)(F)F)cc2)cc1 | 58 µM | > 60 h | – | 204 µM
13 | N#Cc1ccc(Oc2ccc(NCc3ccc(OCCCN4CCCCC4)cc3)cc2)cc1 | 19 µM | > 60 h | – | 22 µM
14 | Fc1ccc(Oc2cccc(NCc3ccc(OCCCN4CCCCC4)cc3)c2)cc1 | 20 µM | > 60 h | – | 292 µM
15 | c1ccc(Oc2ccc(NCc3ccc(OCCCN4CCCC4)cc3)cc2)cc1 | 36 µM | > 60 h | – | 201 µM
16 | N#Cc1ccc(Oc2ccc(NCc3ccc(OCCCn4ccnc4)cc3)cc2)cc1 | 75 µM | > 60 h | – | 371 µM
17 | CN(C)CCCOc1ccc(CNc2ccc(Oc3ccc(F)cc3)cc2)cc1 | 39 µM | > 60 h | – | 227 µM
18 | Fc1ccc(Oc2ccc(NCc3ccc(OCCCn4ccnc4)cc3)cc2)cc1 | 68 µM | > 60 h | – | 337 µM
